Test results as given in ChEMBL document CHEMBL1123693, “Amnesia-reversal activity of a series of cyclic imides” (1987).

How the values were obtained:
Type in all cases: functional
Mus musculus [1] = experiment: Ability to reverse electroconvulsive shock (ECS) induced amnesia in mice, at a dose of 5 mg/Kg administered perorally
Mus musculus [2] = experiment: Ability to reverse electroconvulsive shock (ECS) induced amnesia in mice, at a dose of 80 mg/Kg administered perorally
Mus musculus [3] = experiment: Reversal of electroconvulsive shock induced amnesia in mice following 20 mg/Kg p.o.
Mus musculus [4] = experiment: Ability to reverse electroconvulsive shock (ECS) induced amnesia in mice, at a dose of 10 mg/Kg administered perorally
Mus musculus [5] = experiment: Reversal of electroconvulsive shock induced amnesia in mice following 1 mg/Kg p.o.
Mus musculus [6] = experiment: Reversal of electroconvulsive shock induced amnesia in mice following 100 mg/Kg p.o.
Mus musculus [7] = experiment: Ability to reverse electroconvulsive shock (ECS) induced amnesia in mice, at a dose of 2.5 mg/Kg administered perorally
Mus musculus [8] = experiment: Ability to reverse electroconvulsive shock (ECS) induced amnesia in mice, at a dose of 1.25 mg/Kg administered perorally
Mus musculus [9] = experiment: Ability to reverse electroconvulsive shock (ECS) induced amnesia in mice, at a dose of 1 mg/Kg administered perorally
Mus musculus [10] = experiment: Ability to reverse electroconvulsive shock (ECS) induced amnesia in mice, at a dose of 10 mg/kg administered perorally; conditions: route oral
Mus musculus [11] = experiment: Ability to reverse electroconvulsive shock (ECS) induced amnesia in mice, at a dose of 1.0 mg/Kg administered perorally(Exp-2)
Mus musculus [12] = experiment: Ability to reverse electroconvulsive shock (ECS) induced amnesia in mice, at a dose of 10 mg/Kg administered perorally(Exp-1)
Mus musculus [13] = experiment: Ability to reverse electroconvulsive shock (ECS) induced amnesia in mice, at a dose of 100 mg/Kg administered perorally(Exp-1)
Mus musculus [14] = experiment: Ability to reverse electroconvulsive shock (ECS) induced amnesia in mice, at a dose of 1.0 mg/Kg administered perorally(Exp-1)
Mus musculus [15] = experiment: Ability to reverse electroconvulsive shock (ECS) induced amnesia in mice, at a dose of 10 mg/Kg administered perorally(Exp-2)
Mus musculus [16] = experiment: Ability to reverse electroconvulsive shock (ECS) induced amnesia in mice, at a dose of 100 mg/Kg administered perorally(Exp-2)
Mus musculus [17] = experiment: Ability to reverse electroconvulsive shock (ECS) induced amnesia in mice, at a dose of 160 mg/Kg administered perorally
Mus musculus [18] = experiment: Ability to reverse electroconvulsive shock (ECS) induced amnesia in mice, at a dose of 320 mg/Kg administered perorally
Mus musculus [19] = experiment: Ability to reverse electroconvulsive shock (ECS) induced amnesia in mice, at a dose of 40 mg/Kg administered perorally
Mus musculus [20] = experiment: Ability to reverse electroconvulsive shock (ECS) induced amnesia in mice, at a dose of 0.31 mg/Kg administered perorally
Mus musculus [21] = experiment: Ability to reverse electroconvulsive shock (ECS) induced amnesia in mice, at a dose of 0.63 mg/Kg administered perorally
Mus musculus [22] = experiment: Ability to reverse electroconvulsive shock (ECS) induced amnesia in mice, at a dose of 0.6 mg/Kg administered perorally

SMILES	Reversal (Mus musculus [1])	Reversal (Mus musculus [2])	Reversal (Mus musculus [3])	Reversal (Mus musculus [4])	Reversal (Mus musculus [5])	Reversal (Mus musculus [6])	other results
CC12CCC(=O)N1C(=O)CC2	31%	85%	77%	–	–	–	–
NC(=O)CCC1CCC(=O)N1 (stereo unspecified)	–	–	–	33%	64%	64%	–
CC(OC(=O)CCC1CCC(=O)N1)c1ccccc1 (stereo unspecified)	–	–	–	60%	13%	16%	–
O=C(O)CCC1CCCC(=O)N1 (stereo unspecified)	86%	8%	70%	–	67%	–	Reversal (Mus musculus [7]): 60%; Reversal (Mus musculus [8]): 56%
O=C1CCC2CCC(O)N12 (stereo unspecified)	–	–	–	–	–	17%	Reversal (Mus musculus [9]): 19%; Reversal (Mus musculus [10]): 27%
O=C(CCC1CCC(=O)N1)NCCc1ccc(O)cc1 (stereo unspecified)	–	–	–	0%	20%	0%	–
CCOC(=O)CCC1CCC(=O)N1 (stereo unspecified)	10%	27%	0%	–	–	–	–
O=C(O)CC1CCC(=O)N1 (stereo unspecified)	–	–	–	0%	2%	42%	–
O=C1CCC(CCCC(=O)OCc2ccccc2)N1 (stereo unspecified)	–	–	–	24%	70%	43%	–
Cc1cccc(C)c1NC(=O)CCC1CCC(=O)N1 (stereo unspecified)	–	–	–	56%	49%	50%	–
O=C1CCCCC2CCC(=O)N12 (stereo unspecified)	14%	36%	9%	–	–	–	–
O=C1CCC(CCC(=O)OCc2ccccc2Cl)N1 (stereo unspecified)	–	–	–	–	–	–	Reversal (Mus musculus [11]): 15%; Reversal (Mus musculus [12]): 80%; Reversal (Mus musculus [13]): 70%; Reversal (Mus musculus [14]): 30%; Reversal (Mus musculus [15]): 85%; Reversal (Mus musculus [16]): 31%
CC(C)N(CCNC(=O)CCC1CCC(=O)N1)C(C)C (stereo unspecified)	17%	17%	33%	–	–	–	–
O=C1CCC2CCC(=O)N12 [ROLZIRACETAM]	69%	63%	31%	–	–	–	Reversal (Mus musculus [7]): 25%; Reversal (Mus musculus [17]): 62%; Reversal (Mus musculus [8]): 27%; Reversal (Mus musculus [18]): 85%; Reversal (Mus musculus [19]): 92%; Reversal (Mus musculus [20]): 19%; Reversal (Mus musculus [21]): 73%
O=C1CCC(CCC(=O)OCc2cccc(Cl)c2)N1 (stereo unspecified)	–	–	–	30%	100%	90%	–
COC(=O)CCC1CCC(=O)N1 (stereo unspecified)	75%	75%	100%	–	–	–	–
O=C(O)CCCC1CCC(=O)N1 (stereo unspecified)	–	–	–	50%	34%	100%	–
CC(C)OC(=O)CCC1CCC(=O)N1 (stereo unspecified)	–	–	42%	–	42%	16%	–

SMILES	Reversal (Mus musculus [1])	Reversal (Mus musculus [2])	Reversal (Mus musculus [3])	Reversal (Mus musculus [4])	Reversal (Mus musculus [5])	Reversal (Mus musculus [6])	other results
O=C1CCCC2CCC(=O)N12 (stereo unspecified)	29%	64%	50%	–	–	–	Reversal (Mus musculus [7]): 56%; Reversal (Mus musculus [8]): 18%
COC(=O)CCSC1CCC(=O)N1 (stereo unspecified)	–	–	–	–	–	87%	Reversal (Mus musculus [9]): 53%; Reversal (Mus musculus [10]): 25%
O=C1CCC(CCC(=O)OCc2ccc(Cl)cc2)N1 (stereo unspecified)	–	–	–	25%	0%	42%	–
O=C1CCSC2CCC(=O)N12 (stereo unspecified)	–	–	–	51%	19%	55%	–
O=C(CCC1CCC(=O)N1)Nc1ccncc1 (stereo unspecified)	–	–	–	59%	64%	53%	–
O=C1CCC(/C=C/C(=O)OCc2ccccc2)N1 (stereo unspecified)	–	–	–	–	–	17%	Reversal (Mus musculus [9]): 0%; Reversal (Mus musculus [10]): 31%
CC1CC2CC(C)C(=O)N2C1=O (stereo unspecified)	0%	20%	20%	–	–	–	–
O=C(CCC1CCC(=O)N1)NCc1ccccc1 (stereo unspecified)	0%	50%	62%	–	–	–	–
O=C(O)CSC1CCC(=O)N1 (stereo unspecified)	–	–	–	–	–	31%	Reversal (Mus musculus [9]): 64%; Reversal (Mus musculus [10]): 21%
O=C(O)CCC1CCC(=O)N1 (stereo unspecified)	89%	67%	100%	–	–	–	Reversal (Mus musculus [7]): 91%; Reversal (Mus musculus [8]): 83%; Reversal (Mus musculus [22]): 58%
O=C(O)CCCC1CCCC(=O)N1 (stereo unspecified)	67%	0%	100%	–	–	–	–
CC1CC2CCC(=O)N2C1=O (stereo unspecified)	50%	30%	0%	–	–	–	Reversal (Mus musculus [7]): 50%; Reversal (Mus musculus [8]): 20%
O=C1CCCC2CCCC(=O)N12	33%	55%	44%	–	–	–	–
O=C(O)CCC1CCCCC(=O)N1 (stereo unspecified)	–	–	–	38%	0%	67%	–
O=C1CCC(CCC(=O)NC23C[C@H]4C[C@@H](C2)C[C@@H](C3)C4)N1 (stereo partly specified)	–	–	–	40%	57%	57%	–
CCOC(=O)CCSC1CCC(=O)N1 (stereo unspecified)	–	–	–	–	–	44%	Reversal (Mus musculus [9]): 49%; Reversal (Mus musculus [10]): 66%
O=C1CCC(CCC(=O)OCc2ccccc2)N1 (stereo unspecified)	64%	71%	64%	–	–	–	Reversal (Mus musculus [7]): 67%; Reversal (Mus musculus [8]): 56%; Reversal (Mus musculus [22]): 44%
O=C1CCC2SCC(=O)N12 (stereo unspecified)	–	–	–	0%	31%	0%	–
